Experimental data as given in ChEMBL document CHEMBL4190322, “Structure-based development of novel triazoles and related thiazolotriazoles as anticancer agents and Cdc25A/B phosphatase inhibitors. Synthesis, in vitro biological evaluation, molecular docking and in silico ADME-T studies” (Eur J Med Chem, 2017).
The source made the active and inactive calls. The calls are words filed in the database; no cut-off is given here.

How the values were obtained:
SNB-19 = experiment: Growth inhibition of human SNB19 cells at 10 uM after 48 hrs by SRB assay relative to control; type: functional; conditions: SNB-19, 48 h, read-out: GI
CCRF-CEM = experiment: Growth inhibition of human CCRF-CEM cells at 10 uM after 48 hrs by SRB assay relative to control; type: functional; conditions: read-out: GI
OVCAR-4 = experiment: Growth inhibition of human OVCAR4 cells at 10 uM after 48 hrs by SRB assay relative to control; type: functional; conditions: OVCAR-4, 48 h, read-out: GI
HT-29 = experiment: Growth inhibition of human HT-29 cells at 10 uM after 48 hrs by SRB assay relative to control; type: functional; conditions: HT-29, 48 h, read-out: GI
NCI/ADR-RES = experiment: Growth inhibition of human NCI/ADR-RES cells at 10 uM after 48 hrs by SRB assay relative to control; type: functional; conditions: read-out: GI
HCT-116 = experiment: Growth inhibition of human HCT116 cells at 10 uM after 48 hrs by SRB assay relative to control; type: functional; conditions: for inhibition of growth at 10 µM: HCT-116, 48 h, read-out: GI
HL-60 = experiment: Growth inhibition of human HL60 cells at 10 uM after 48 hrs by SRB assay relative to control; type: functional
MCF7 = experiment: Growth inhibition of human MCF7 cells at 10 uM after 48 hrs by SRB assay relative to control; type: functional; conditions: MCF7, 48 h, read-out: GI
NCI-H522 = experiment: Growth inhibition of human NCI-H522 cells at 10 uM after 48 hrs by SRB assay relative to control; type: functional; conditions: NCI-H522, 48 h, read-out: GI
SNB-75 = experiment: Growth inhibition of human SNB75 cells at 10 uM after 48 hrs by SRB assay relative to control; type: functional; conditions: SNB-75, 48 h, read-out: GI
K562 = experiment: Growth inhibition of human K562 cells at 10 uM after 48 hrs by SRB assay relative to control; type: functional; conditions: K562, 48 h, read-out: GI
UACC-257 = experiment: Growth inhibition of human UACC257 cells at 10 uM after 48 hrs by SRB assay relative to control; type: functional
SK-MEL-5 = experiment: Growth inhibition of human SK-MEL-5 cells at 10 uM after 48 hrs by SRB assay relative to control; type: functional; conditions: SK-MEL-5, 48 h, read-out: GI
786-0 = experiment: Growth inhibition of human 786-0 cells at 10 uM after 48 hrs by SRB assay relative to control; type: functional; conditions: 786-0, 48 h, read-out: GI
SF-268 = experiment: Growth inhibition of human SF268 cells at 10 uM after 48 hrs by SRB assay relative to control; type: functional; conditions: SF-268, 48 h, read-out: GI
SK-MEL-2 = experiment: Growth inhibition of human SK-MEL-2 cells at 10 uM after 48 hrs by SRB assay relative to control; type: functional; conditions: SK-MEL-2, 48 h, read-out: GI
[1] = molecular target: T1, M-phase inducer phosphatase 2 (Homo sapiens, UniProt P30305); experiment: Inhibition of human CDC25B using OMFP as substrate after 15 mins by fluorescence assay
T1 sequence (P30305 whole entry): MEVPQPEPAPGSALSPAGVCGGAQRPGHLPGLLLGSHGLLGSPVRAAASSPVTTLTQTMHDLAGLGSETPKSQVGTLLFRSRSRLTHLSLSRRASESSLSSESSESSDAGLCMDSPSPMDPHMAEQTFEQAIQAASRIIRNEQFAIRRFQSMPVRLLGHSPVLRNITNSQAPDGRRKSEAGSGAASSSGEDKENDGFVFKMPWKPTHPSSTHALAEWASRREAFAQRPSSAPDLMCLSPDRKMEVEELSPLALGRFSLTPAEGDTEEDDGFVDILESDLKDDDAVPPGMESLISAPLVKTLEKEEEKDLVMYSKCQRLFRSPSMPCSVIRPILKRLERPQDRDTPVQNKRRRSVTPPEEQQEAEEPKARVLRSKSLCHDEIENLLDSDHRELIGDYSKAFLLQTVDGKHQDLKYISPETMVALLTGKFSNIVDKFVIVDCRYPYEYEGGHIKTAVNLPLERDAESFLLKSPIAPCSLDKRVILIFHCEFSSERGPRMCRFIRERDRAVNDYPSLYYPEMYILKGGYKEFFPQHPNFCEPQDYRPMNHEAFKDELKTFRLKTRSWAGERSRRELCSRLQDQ

A498 = experiment: Growth inhibition of human A498 cells at 10 uM after 48 hrs by SRB assay relative to control; type: functional; conditions: A498, 48 h, read-out: GI
A549 = experiment: Growth inhibition of human A549 cells at 10 uM after 48 hrs by SRB assay relative to control; type: functional; conditions: A549, 48 h, read-out: GI
Hs-578T = experiment: Growth inhibition of human Hs 578T cells at 10 uM after 48 hrs by SRB assay relative to control; type: functional; conditions: read-out: GI
SK-OV-3 = experiment: Growth inhibition of human SKOV3 cells at 10 uM after 48 hrs by SRB assay relative to control; type: functional; conditions: SK-OV-3, 48 h, read-out: GI
MOLT-4 = experiment: Growth inhibition of human MOLT4 cells at 10 uM after 48 hrs by SRB assay relative to control; type: functional; conditions: MOLT-4, 48 h, read-out: GI
HOP-62 = experiment: Growth inhibition of human HOP62 cells at 10 uM after 48 hrs by SRB assay relative to control; type: functional; conditions: HOP-62, 48 h, read-out: GI
HOP-92 = experiment: Growth inhibition of human HOP92 cells at 10 uM after 48 hrs by SRB assay relative to control; type: functional; conditions: HOP-92, 48 h, read-out: GI
SR = experiment: Growth inhibition of human SR cells at 10 uM after 48 hrs by SRB assay relative to control; type: functional; conditions: read-out: GI
RXF 393 = experiment: Growth inhibition of human RXF393 cells at 10 uM after 48 hrs by SRB assay relative to control; type: functional; conditions: for inhibition of growth at 10 µM: RXF 393, 48 h, read-out: GI
Malme-3M = experiment: Growth inhibition of human MALME-3M cells at 10 uM after 48 hrs by SRB assay relative to control; type: functional; conditions: read-out: GI
OVCAR-8 = experiment: Growth inhibition of human OVCAR8 cells at 10 uM after 48 hrs by SRB assay relative to control; type: functional
NCI-H322M = experiment: Growth inhibition of human NCI-H322M cells at 10 uM after 48 hrs by SRB assay relative to control; type: functional; conditions: read-out: GI
KM12 = experiment: Growth inhibition of human KM12 cells at 10 uM after 48 hrs by SRB assay relative to control; type: functional; conditions: KM12, 48 h, read-out: GI
U-251 = experiment: Growth inhibition of human U251 cells at 10 uM after 48 hrs by SRB assay relative to control; type: functional; conditions: U-251, 48 h, read-out: GI
UACC-62 = experiment: Growth inhibition of human UACC62 cells at 10 uM after 48 hrs by SRB assay relative to control; type: functional; conditions: UACC-62, 48 h, read-out: GI

SMILES | inhibition of growth at 10 µM (SNB-19) [%] | inhibition of growth at 10 µM (CCRF-CEM) [%] | inhibition of growth at 10 µM (OVCAR-4) [%] | inhibition of growth at 10 µM (HT-29) [%] | inhibition of growth at 10 µM (NCI/ADR-RES) [%] | growth inhibition (GI) (HL-60) | inhibition of growth at 10 µM (MCF7) [%] | inhibition of growth at 10 µM (NCI-H522) [%] | inhibition of growth at 10 µM (SNB-75) [%] | inhibition of growth at 10 µM (K562) [%] | inhibition of growth at 10 µM (SK-MEL-5) [%] | inhibition of growth at 10 µM (786-0) [%] | inhibition of growth at 10 µM (SF-268) [%] | inhibition of growth at 10 µM (SK-MEL-2) [%] | IC50 [1] [µM] | inhibition of growth at 10 µM (A498) [%] | inhibition of growth at 10 µM (A549) [%] | inhibition of growth at 10 µM (Hs-578T) [%] | inhibition of growth at 10 µM (SK-OV-3) [%] | inhibition of growth at 10 µM (MOLT-4) [%] | other results
COc1ccc(Cc2nnc(SCC(=O)Nc3ccc(Cl)cc3)n2Cc2ccccc2)cc1 | 6.27 | 22.4 | 11.8 | 10 | 14.3 | inactive | 11.1 | 29.3 | 4 | 34.5 | 4.45 | 11.4 | 12 | 17.2 | 8.4 | 16 | 1.05 | 2.82 | 16.2 | 36 | inhibition of growth at 10 µM (HCT-116): 11%; growth inhibition (GI) (UACC-257): inactive; inhibition of growth at 10 µM (HOP-62): 12%; inhibition of growth at 10 µM (HOP-92): 29.8%; inhibition of growth at 10 µM (SR): 25.7%; growth inhibition (GI) (RXF 393): inactive; inhibition of growth at 10 µM (Malme-3M): 5.6%; growth inhibition (GI) (OVCAR-8): inactive; inhibition of growth at 10 µM (NCI-H322M): 14.5%; inhibition of growth at 10 µM (KM12): 16.7%; inhibition of growth at 10 µM (U-251): 5.5%; inhibition of growth at 10 µM (UACC-62): 38%
COc1ccc(Cc2nnc(SCC(=O)c3ccc(Cl)cc3)n2Cc2ccccc2)cc1 | 9.2 | 20 | 10 | 3 | 21.5 | inactive | 10 | 30 | 14.4 | 29.2 | 5.52 | 3.19 | 11.8 | 13 | 6.7 | 35.2 | 16.5 | 20 | 17 | 28.6 | inhibition of growth at 10 µM (HCT-116): 11.6%; inhibition of growth at 10 µM (UACC-257; UACC-257, 48 h, read-out: GI): 6.9%; inhibition of growth at 10 µM (HOP-62): 11.2%; inhibition of growth at 10 µM (HOP-92): 39.3%; inhibition of growth at 10 µM (SR): 22.2%; inhibition of growth at 10 µM (RXF 393): 16%; inhibition of growth at 10 µM (Malme-3M): 3%; inhibition of growth at 10 µM (OVCAR-8; OVCAR-8, 48 h, read-out: GI): 10%; inhibition of growth at 10 µM (NCI-H322M): 26%; inhibition of growth at 10 µM (KM12): 10%; inhibition of growth at 10 µM (U-251): 8.87%; inhibition of growth at 10 µM (UACC-62): 14.8%
COc1ccc(Cc2nnc(SCC(=O)c3ccc(Cl)cc3)n2-c2ccccc2)cc1 | 5 | 7.71 | 22 | 2.08 | 10.3 | inactive | 6.26 | 21 | 12.8 | 26.7 | 7 | 7.77 | 3.38 | 11.5 | 20.1 | 24.5 | 4.57 | 3.43 | 7.83 | 24 | growth inhibition (GI) (HCT-116): inactive; growth inhibition (GI) (UACC-257): inactive; inhibition of growth at 10 µM (HOP-62): 1.26%; inhibition of growth at 10 µM (HOP-92): 24.1%; inhibition of growth at 10 µM (SR): 24.1%; inhibition of growth at 10 µM (RXF 393): 2%; inhibition of growth at 10 µM (Malme-3M): 16.9%; growth inhibition (GI) (OVCAR-8): inactive; inhibition of growth at 10 µM (NCI-H322M): 8.4%; inhibition of growth at 10 µM (KM12): 5.87%; inhibition of growth at 10 µM (U-251): 10.1%; inhibition of growth at 10 µM (UACC-62): 13.7%
